PubChem BioAssay (NCI)
Where “and” joins values, the source holds several entries; their conditions need not be identical. Identical values can stand only once.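 Each compound was tested at five concentrations against cells in 96-well plates for 48 hours. Here, GI50 denotes the concentration required for 50% inhibition of growth. TGI marks complete inhibition of growth.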

Experiments:
Test in all cases: NCI tumour cell line growth inhibition, 48 h
CAKI-1 renal = system: CAKI-1 renal
DU-145 prostate = system: DU-145 prostate
HCT-116 colon = system: HCT-116 colon
HL-60(TB) leukemia = system: HL-60(TB) leukemia
IGROV1 ovarian = system: IGROV1 ovarian
SF-268 CNS = system: SF-268 CNS
SK-MEL-2 melanoma = system: SK-MEL-2 melanoma
SK-OV-3 ovarian = system: SK-OV-3 ovarian
TK-10 renal = system: TK-10 renal

Row | Compound | TGI (CAKI-1 renal) | TGI (DU-145 prostate) | TGI (HCT-116 colon) | TGI (HL-60(TB) leukemia) | TGI (IGROV1 ovarian) | TGI (SF-268 CNS) | TGI (SK-MEL-2 melanoma) | TGI (SK-OV-3 ovarian) | TGI (TK-10 renal) | GI50 (SK-MEL-2 melanoma) | GI50 (CAKI-1 renal) | GI50 (HCT-116 colon) | GI50 (IGROV1 ovarian) | GI50 (SF-268 CNS) | GI50 (SK-OV-3 ovarian) | GI50 (TK-10 renal) | GI50 (HL-60(TB) leukemia)
1 | C=CC[C@H]1[C@@H](O[Si](C)(C)C(C)(C)C)[C@H](n2ccc(=O)[nH]c2=O)O[C@@H]1CO[Si](C)(C)C(C)(C)C | 4.42 µM | 6.64 µM | 3.11 µM | 2.59 µM | 6.05 µM | 8.64 µM | 7.08 µM | 2.68 µM | 7.02 µM |  |  |  |  |  |  |  | 
2 | COc1cc(OC)c2c(O)cc(CC(C)O)cc2c1 (centres undefined) | > 100 µM |  | > 100 µM | > 100 µM | > 100 µM | > 100 µM | > 100 µM | > 100 µM | > 100 µM |  |  |  |  |  |  |  | 
3 | C=CCC(C)C12CCNC(Cc3ccc(O)cc31)C2C (centres undefined) |  | > 100 µM | > 100 µM |  | > 100 µM | > 100 µM |  | > 100 µM | > 100 µM |  |  |  |  |  |  |  | 
4 | CC(=O)OC[C@H]1O[C@@H](O[C@H]2[C@H](OC(C)=O)C=CO[C@@H]2COC(C)=O)C(OC(C)=O)[C@H]2OC(C)(C)O[C@H]21 (some centres undefined) | > 100 µM |  | > 100 µM |  | > 100 µM | > 100 µM |  | > 100 µM | > 100 µM |  |  |  |  |  |  |  | 
5 | Cn1ccnc1S/C(=C\C=C(C#N)C#N)c1ccc(Cl)cc1 | 6.16 µM | 10.9 µM | 1.58 µM | 3.42 µM | 16.1 µM | 14.4 µM | > 45.5 µM | 38.8 µM | 2.81 µM | 5.38 µM |  |  |  |  |  |  | 
6 | CC(C)C[C@H](NC(=O)[C@H](Cc1cccc2ccccc12)NC(=O)N1CCOCC1)B(O)O | 0.0147 µM and 0.0371 µM | 0.116 µM and < 0.0249 µM | 0.00182 µM |  | 0.0485 µM | 0.00328 µM | 0.00251 µM and < 0.0159 µM | > 100 µM | 0.0226 µM | 0.00068 µM | 0.00283 µM | 0.000452 µM | 0.00408 µM | 0.000925 µM | 0.226 µM | 0.00281 µM | 
7 | CCCCOC(=O)CNC(=O)OCCCCC#CC#CCCCCOC(=O)NCC(=O)OCCCC | > 100 µM |  | > 100 µM | > 100 µM | > 100 µM | > 100 µM |  | > 100 µM | > 100 µM |  |  |  |  |  |  |  | 
8 | COc1cccc2cc(C)c(C(=O)c3ccccc3)nc12 | > 100 µM |  | > 100 µM |  | > 100 µM | > 100 µM | > 100 µM |  | > 100 µM |  |  |  |  |  |  |  | 
9 | CC(=O)C1CC(C)=CCC12C(=O)Nc1ccccc12 (centres undefined) | > 100 µM |  | > 100 µM | > 100 µM | > 100 µM | > 100 µM | > 100 µM | > 100 µM | > 100 µM |  |  |  |  |  |  |  | 
10 | S=C1c2ccccc2NC(=NC2CCCC2)C2CSCN12 (centres undefined) | > 100 µM | > 100 µM | > 100 µM |  | > 100 µM | > 100 µM | > 100 µM | > 100 µM | > 100 µM |  |  |  |  |  |  |  | 
11 | COC1=CC(=O)c2ccccc2C1(CCC=C(C)C)C1=NC(C)(C)CO1 (centres undefined) | > 100 µM |  | > 100 µM | 62.9 µM | > 100 µM | > 100 µM | > 100 µM | > 100 µM | > 100 µM |  |  |  |  |  |  |  | 
12 | CCC1C(=O)C[C@H]2[C@@H]3C(O)CC4=CC(=O)CC[C@]4(C)[C@H]3CC[C@]12C (some centres undefined) | > 50 µM | > 50 µM | > 50 µM | > 50 µM | > 50 µM | > 50 µM | > 50 µM | > 50 µM | > 50 µM |  |  |  |  |  |  |  | 
13 | COc1ccc2c3c1OC1CC(O)C=CC31CCN(C)C2 (centres undefined) | > 150 µM |  | > 150 µM | > 150 µM | > 150 µM | > 91.8 µM | > 150 µM | > 150 µM |  |  |  |  |  |  |  |  | 
14 | O=C(CSc1nc2ccccc2[nH]1)Nc1ccc(-c2nc3ccccc3s2)c(Cl)c1 | > 100 µM |  |  | > 100 µM | 4.99 µM | 4.37 µM | > 100 µM | 12 µM | 76.6 µM | 7.44 µM | 4.17 µM |  | 1.6 µM | 1.88 µM | 2.72 µM | 4.67 µM | > 100 µM
15 | CCOC(=O)/C(O)=C1\C(=O)N(C)C(=O)C1c1ccc(OC)c(OC)c1 (centres undefined) | > 100 µM |  | > 100 µM | > 100 µM | > 100 µM | > 100 µM | > 100 µM | > 100 µM |  |  |  |  |  |  |  |  | 
16 | COc1ccc2[nH]c3c(c2c1)CCN(C)CC3 | > 100 µM |  | > 100 µM | > 100 µM | > 100 µM | > 100 µM | > 100 µM | > 100 µM | > 100 µM |  |  |  |  |  |  |  | 
17 | COC(=O)/C=C/c1ccccc1N=[S@](C)(=O)c1ccc(C)cc1 | > 100 µM | > 100 µM | 71.8 µM | 7.25 µM | > 100 µM | > 100 µM | 70.7 µM | > 100 µM | 71.9 µM |  |  |  |  |  |  |  | 
18 | CCCCCc1cc(OC(=O)c2c(O)cc(OC)cc2CCCCC)cc(O)c1C(=O)O | 34.5 µM |  |  | 60.2 µM | 32.5 µM | 30 µM | 31.6 µM | 31.5 µM | 36.6 µM |  |  |  |  |  |  |  | 
19 | O=C1C(Br)=CC2([N+](=O)[O-])CCNc3c(O)c4c5c(c3C2=C1Br)=NCCC=5C=N4 (centres undefined) | 5.25 µM |  | 1.09 µM | 0.454 µM | 4.27 µM | 6.27 µM | 3.15 µM | 13.3 µM |  |  |  |  |  |  |  |  | 
